The source of these data is ChEMBL document CHEMBL5291721, “A preclinical secondary pharmacology resource illuminates target-adverse drug reaction associations of marketed drugs” (Nat Commun, 2023).

Targets include D(3) dopamine receptor (Homo sapiens, UniProt P35462); Histamine H1 receptor (Homo sapiens, UniProt P35367); Histamine H3 receptor (Homo sapiens, UniProt Q9Y5N1).
For assay [1], the target named is T1, Alpha-1A adrenergic receptor (Homo sapiens, UniProt P35348).
T1 sequence (P35348 whole entry): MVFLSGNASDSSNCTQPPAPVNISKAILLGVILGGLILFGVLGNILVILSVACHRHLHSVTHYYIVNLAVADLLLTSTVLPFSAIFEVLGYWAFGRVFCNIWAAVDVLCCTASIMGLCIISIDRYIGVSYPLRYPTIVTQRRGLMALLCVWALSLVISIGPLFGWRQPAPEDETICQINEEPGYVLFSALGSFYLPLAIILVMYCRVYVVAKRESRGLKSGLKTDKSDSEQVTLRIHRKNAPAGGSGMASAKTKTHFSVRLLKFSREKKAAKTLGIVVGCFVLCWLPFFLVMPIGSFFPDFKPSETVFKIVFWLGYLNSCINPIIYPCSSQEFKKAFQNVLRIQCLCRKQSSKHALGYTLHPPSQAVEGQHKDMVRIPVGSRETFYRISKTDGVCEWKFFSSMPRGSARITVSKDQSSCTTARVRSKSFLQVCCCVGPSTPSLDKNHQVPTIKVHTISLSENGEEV
The assay is classed as functional, cell-based.

Assay [2] has as its target T2, Muscarinic acetylcholine receptor M1 (Homo sapiens, UniProt P11229).
T2 sequence (P11229 whole entry): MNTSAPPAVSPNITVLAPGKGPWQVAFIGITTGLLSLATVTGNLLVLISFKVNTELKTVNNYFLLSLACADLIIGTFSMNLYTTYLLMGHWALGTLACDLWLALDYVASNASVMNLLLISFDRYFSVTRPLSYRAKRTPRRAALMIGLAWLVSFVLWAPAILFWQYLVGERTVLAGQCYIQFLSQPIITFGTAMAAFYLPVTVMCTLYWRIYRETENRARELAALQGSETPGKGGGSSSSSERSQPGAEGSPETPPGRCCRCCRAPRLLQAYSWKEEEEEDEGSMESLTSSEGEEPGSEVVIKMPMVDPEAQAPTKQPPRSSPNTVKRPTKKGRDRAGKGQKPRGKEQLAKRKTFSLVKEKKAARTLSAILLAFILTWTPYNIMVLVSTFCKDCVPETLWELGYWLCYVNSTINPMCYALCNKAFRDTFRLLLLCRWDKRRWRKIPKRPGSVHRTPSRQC
The assay is classed as functional, cell-based.

Assay [3] deals with T3, Muscarinic acetylcholine receptor M2 (Homo sapiens, UniProt P08172).
T3 sequence (P08172 whole entry): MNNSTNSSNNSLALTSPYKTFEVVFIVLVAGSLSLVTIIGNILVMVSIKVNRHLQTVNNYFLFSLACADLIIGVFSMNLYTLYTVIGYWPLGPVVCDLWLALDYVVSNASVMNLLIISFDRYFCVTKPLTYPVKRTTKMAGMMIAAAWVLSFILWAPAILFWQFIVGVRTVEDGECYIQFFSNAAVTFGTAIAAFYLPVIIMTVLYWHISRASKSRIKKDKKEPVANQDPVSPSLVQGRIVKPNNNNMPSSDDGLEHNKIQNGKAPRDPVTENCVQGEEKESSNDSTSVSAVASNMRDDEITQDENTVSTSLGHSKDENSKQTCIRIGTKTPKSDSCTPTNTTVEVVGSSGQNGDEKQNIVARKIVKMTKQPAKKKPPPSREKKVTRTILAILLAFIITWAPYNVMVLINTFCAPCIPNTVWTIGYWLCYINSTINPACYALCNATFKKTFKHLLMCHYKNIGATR

For assay [4], the target named is T4, 5-hydroxytryptamine receptor 2B (Homo sapiens, UniProt P41595). The assay is classed as functional, cell-based.
T4 sequence (P41595 whole entry): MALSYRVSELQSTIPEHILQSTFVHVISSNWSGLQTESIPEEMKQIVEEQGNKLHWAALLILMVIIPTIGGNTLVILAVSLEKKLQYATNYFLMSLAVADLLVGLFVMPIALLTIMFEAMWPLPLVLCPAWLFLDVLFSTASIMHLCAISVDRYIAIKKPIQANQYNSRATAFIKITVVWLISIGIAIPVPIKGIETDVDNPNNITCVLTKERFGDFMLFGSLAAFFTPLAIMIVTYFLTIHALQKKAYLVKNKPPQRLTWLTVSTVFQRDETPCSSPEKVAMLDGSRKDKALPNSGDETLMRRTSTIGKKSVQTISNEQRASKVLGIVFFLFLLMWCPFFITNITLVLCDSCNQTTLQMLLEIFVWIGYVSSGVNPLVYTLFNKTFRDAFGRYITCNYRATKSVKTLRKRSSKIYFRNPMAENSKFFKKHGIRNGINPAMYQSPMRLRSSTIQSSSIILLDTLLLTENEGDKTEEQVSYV
The target of assay [5] is cGMP-inhibited 3',5'-cyclic phosphodiesterase 3A (Homo sapiens, UniProt Q14432). The assay is classed as functional.
cGMP-inhibited 3',5'-cyclic phosphodiesterase 3A, sequence (Q14432 whole entry): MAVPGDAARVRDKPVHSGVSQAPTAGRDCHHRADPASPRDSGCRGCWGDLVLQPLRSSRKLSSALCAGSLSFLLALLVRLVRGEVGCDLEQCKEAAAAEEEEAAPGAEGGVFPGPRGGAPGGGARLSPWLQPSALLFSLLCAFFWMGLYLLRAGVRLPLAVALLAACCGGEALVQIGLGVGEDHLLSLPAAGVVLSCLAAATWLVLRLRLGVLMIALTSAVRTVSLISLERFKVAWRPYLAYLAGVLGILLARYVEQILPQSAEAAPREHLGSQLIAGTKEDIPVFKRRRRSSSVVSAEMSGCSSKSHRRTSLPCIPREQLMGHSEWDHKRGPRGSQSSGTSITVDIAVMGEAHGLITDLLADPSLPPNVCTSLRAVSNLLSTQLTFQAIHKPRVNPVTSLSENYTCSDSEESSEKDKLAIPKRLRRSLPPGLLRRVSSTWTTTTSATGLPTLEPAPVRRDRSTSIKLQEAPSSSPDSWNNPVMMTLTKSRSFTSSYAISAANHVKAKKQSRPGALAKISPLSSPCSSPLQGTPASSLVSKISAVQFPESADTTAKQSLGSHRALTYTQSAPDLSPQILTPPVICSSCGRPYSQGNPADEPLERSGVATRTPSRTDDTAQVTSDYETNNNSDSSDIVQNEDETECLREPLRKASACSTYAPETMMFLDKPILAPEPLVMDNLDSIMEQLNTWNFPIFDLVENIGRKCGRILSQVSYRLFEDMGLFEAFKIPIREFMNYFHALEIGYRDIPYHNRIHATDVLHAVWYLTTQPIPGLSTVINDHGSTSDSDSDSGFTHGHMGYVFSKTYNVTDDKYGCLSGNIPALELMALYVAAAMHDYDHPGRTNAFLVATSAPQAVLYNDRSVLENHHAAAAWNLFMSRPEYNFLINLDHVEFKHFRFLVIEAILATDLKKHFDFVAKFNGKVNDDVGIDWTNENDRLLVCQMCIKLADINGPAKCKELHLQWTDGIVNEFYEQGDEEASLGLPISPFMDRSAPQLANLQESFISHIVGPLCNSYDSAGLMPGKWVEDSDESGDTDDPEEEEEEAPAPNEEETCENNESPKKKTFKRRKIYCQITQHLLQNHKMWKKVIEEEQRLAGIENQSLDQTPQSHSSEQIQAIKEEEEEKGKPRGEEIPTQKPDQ
For assay [6], the target named is T2, Muscarinic acetylcholine receptor M1. It is filed as functional.
The target in assay [7] is T3, Muscarinic acetylcholine receptor M2. The assay is classed as functional, cell-based.
The target of another assay is Cannabinoid receptor 1 (Homo sapiens, UniProt P21554). It is filed as functional, cell-based.
Cannabinoid receptor 1, sequence (P21554 whole entry): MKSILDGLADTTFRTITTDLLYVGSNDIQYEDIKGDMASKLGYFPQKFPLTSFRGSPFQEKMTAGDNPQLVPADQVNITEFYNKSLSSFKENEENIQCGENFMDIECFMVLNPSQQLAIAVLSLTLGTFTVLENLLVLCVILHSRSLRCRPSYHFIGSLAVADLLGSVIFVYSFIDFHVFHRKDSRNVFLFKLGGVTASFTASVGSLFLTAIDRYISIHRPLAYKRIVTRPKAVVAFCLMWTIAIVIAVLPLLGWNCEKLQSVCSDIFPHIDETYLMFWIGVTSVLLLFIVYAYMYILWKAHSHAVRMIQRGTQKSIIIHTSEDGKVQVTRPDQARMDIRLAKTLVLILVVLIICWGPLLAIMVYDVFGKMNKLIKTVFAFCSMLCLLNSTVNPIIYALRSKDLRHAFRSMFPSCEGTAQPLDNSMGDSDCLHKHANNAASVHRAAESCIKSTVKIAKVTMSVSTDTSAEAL
Assay [8] deals with Gamma-aminobutyric acid receptor subunit alpha-1 (Rattus norvegicus, UniProt P62813).
Gamma-aminobutyric acid receptor subunit alpha-1, sequence (P62813 whole entry): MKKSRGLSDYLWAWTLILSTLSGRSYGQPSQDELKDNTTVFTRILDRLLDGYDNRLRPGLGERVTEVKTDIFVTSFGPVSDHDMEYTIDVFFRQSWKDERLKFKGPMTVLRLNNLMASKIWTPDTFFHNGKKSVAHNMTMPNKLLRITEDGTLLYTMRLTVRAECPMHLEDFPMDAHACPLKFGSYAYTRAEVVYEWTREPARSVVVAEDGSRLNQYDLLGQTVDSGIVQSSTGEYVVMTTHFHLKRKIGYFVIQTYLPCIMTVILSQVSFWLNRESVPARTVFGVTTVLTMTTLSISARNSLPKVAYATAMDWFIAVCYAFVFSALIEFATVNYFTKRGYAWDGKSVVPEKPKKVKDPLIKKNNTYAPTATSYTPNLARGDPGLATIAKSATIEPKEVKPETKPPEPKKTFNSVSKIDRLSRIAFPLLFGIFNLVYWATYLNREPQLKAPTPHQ
The target in assay [9] is 5-hydroxytryptamine receptor 2A (Homo sapiens, UniProt P28223). The assay is classed as functional, cell-based.
5-hydroxytryptamine receptor 2A, sequence (P28223 whole entry): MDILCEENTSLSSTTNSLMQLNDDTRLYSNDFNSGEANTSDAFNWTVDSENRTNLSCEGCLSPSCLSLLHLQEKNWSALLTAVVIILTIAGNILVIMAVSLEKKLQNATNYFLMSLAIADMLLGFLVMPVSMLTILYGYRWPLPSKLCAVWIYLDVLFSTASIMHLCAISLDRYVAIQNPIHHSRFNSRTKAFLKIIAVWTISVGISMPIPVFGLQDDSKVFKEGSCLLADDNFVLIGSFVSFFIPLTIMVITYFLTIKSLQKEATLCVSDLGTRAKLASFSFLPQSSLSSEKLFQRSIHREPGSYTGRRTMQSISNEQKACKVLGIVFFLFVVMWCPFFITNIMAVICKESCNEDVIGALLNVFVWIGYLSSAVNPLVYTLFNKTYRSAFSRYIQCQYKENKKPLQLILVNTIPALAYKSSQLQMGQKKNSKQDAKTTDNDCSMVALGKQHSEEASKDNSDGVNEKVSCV
The target in assay [10] is T4, 5-hydroxytryptamine receptor 2B. It is filed as functional, cell-based. The source holds these as a separate data set.
For assay [11], the target named is T1, Alpha-1A adrenergic receptor. It is filed as functional, cell-based. The source holds these as a separate data set.
Another assay has as its target T5, Glucocorticoid receptor (Homo sapiens, UniProt P04150).
T5 sequence (P04150 whole entry): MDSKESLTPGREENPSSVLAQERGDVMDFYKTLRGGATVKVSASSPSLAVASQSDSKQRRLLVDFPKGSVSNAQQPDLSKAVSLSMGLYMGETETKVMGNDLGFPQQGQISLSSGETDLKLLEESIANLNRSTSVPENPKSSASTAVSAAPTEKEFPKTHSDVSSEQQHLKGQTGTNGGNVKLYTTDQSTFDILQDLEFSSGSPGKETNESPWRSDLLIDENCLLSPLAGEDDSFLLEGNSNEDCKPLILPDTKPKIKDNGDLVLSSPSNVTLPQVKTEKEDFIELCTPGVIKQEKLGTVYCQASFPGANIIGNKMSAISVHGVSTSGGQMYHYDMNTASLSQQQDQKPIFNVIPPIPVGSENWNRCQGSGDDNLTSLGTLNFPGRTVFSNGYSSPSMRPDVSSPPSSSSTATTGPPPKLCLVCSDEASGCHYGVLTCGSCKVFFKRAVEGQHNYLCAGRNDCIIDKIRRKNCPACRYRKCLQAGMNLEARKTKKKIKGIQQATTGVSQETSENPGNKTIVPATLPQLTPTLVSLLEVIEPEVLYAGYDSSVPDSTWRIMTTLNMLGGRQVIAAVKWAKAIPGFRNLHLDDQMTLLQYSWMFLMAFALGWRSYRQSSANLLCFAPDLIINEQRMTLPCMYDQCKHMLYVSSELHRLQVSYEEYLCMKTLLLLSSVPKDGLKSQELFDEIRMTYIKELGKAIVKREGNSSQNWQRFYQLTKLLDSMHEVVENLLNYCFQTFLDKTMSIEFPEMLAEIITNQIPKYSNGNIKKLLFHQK
Note: assay procedure not described here.

Histamine H1 receptor, sequence (P35367 whole entry): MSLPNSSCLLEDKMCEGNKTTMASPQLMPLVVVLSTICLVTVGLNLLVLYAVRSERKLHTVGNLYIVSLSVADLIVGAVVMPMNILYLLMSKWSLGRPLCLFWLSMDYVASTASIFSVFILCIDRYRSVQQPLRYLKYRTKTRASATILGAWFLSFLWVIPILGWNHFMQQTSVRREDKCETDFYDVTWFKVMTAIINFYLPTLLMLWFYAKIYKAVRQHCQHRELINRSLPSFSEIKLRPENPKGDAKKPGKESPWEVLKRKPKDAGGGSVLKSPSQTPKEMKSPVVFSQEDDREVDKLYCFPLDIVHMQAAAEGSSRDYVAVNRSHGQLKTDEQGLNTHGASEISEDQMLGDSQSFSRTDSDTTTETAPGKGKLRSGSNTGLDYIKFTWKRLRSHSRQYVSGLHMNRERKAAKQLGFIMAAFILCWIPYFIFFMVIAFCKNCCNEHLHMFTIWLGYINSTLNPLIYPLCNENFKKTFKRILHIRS
Histamine H3 receptor, sequence (Q9Y5N1 whole entry): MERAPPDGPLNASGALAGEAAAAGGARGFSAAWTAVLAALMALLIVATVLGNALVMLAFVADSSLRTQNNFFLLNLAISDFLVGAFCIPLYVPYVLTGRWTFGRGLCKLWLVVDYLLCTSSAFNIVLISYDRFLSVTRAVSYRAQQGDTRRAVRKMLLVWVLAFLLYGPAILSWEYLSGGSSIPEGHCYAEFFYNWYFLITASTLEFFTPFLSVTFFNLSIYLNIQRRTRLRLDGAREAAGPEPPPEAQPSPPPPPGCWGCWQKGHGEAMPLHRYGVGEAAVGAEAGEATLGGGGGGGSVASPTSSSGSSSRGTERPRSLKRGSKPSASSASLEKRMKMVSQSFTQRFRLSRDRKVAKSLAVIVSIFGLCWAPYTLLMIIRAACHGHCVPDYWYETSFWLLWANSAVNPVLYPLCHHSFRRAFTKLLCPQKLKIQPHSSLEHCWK
D(3) dopamine receptor, sequence (P35462 whole entry): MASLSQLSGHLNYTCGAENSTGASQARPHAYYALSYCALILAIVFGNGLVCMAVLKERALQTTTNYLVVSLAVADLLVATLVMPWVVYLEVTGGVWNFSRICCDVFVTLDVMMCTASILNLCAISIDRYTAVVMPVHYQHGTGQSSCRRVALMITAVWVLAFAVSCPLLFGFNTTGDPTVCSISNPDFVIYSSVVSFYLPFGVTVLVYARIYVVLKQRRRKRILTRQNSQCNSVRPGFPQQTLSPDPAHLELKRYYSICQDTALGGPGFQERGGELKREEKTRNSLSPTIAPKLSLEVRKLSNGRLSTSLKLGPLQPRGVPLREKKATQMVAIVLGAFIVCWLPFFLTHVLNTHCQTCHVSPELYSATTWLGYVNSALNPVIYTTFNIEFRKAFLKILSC

For orientation: AC50 means the concentration at which the activity in the assay is half-maximal. A lower AC50 goes with activity at low concentration. Regarding `CCC(=O)O[C@]1(C(=O)CCl)[C@@H](C)C[C@H]2[C@@H]3C[C@H](F)C4=CC(=O)C=C[C@]4(C)[C@@]3(F)[C@@H](O)C[C@@]21C` [HALOBETASOL PROPIONATE], the AC50 was more than 30 µM in assay [1]; 14.9 µM in assay [2]; more than 30 µM in assay [3]; more than 30 µM at D(3) dopamine receptor; more than 30 µM in [4]; more than 30 µM in assay [5].

Turning to `CCOC(=O)N1CSC[C@H]1C(=O)O` [TELMESTEINE], the AC50 (in assay [1]; in assay [2]; in assay [3]; at D(3) dopamine receptor; in assay [4]; in [5]) was more than 30 µM in each case.

With `Cc1ncc(COP(=O)(O)O)c(C=O)c1O` [PYRIDOXAL PHOSPHATE ANHYDROUS], the AC50 (in assay [1]; in assay [2]; in assay [3]; on D(3) dopamine receptor; in [4]; in assay [5]) was more than 30 µM each time.

Consider `CCCc1nc(C(C)(C)O)c(C(=O)O)n1Cc1ccc(-c2ccccc2-c2nnn[nH]2)cc1` [OLMESARTAN], for which the AC50 (in assay [1]; in assay [2]; in assay [3]; at D(3) dopamine receptor; in assay [4]; in [5]) was more than 30 µM in each case.

In the case of `O=[N+]([O-])c1ccc(O)c2ncccc12` [NITROXOLINE], the AC50 in [6] was 8.5 µM; in [7], more than 30 µM; in assay [3], more than 30 µM; on Cannabinoid receptor 1, more than 30 µM; on D(3) dopamine receptor it was 20.4 µM; in assay [8] it was more than 30 µM. Further, the AC50 on Histamine H1 receptor was 4.9 µM; in assay [9], more than 30 µM; in assay [4], more than 30 µM; in assay [10], more than 30 µM; in [5], more than 30 µM; in assay [11], more than 30 µM.

As to `CC(N)Cc1ccc(O)cc1` (stereo not drawn) [HYDROXYAMPHETAMINE], the concentration at half-maximal activity (AC50) (in [1]; in assay [2]; in assay [3]; on D(3) dopamine receptor; in assay [4]; in assay [5]) was more than 30 µM each time.

On to `Cc1cc(NC(=O)C2=C(O)c3ccccc3S(=O)(=O)N2C)no1` [ISOXICAM], for which the half-maximal activity concentration (AC50) (in assay [1]; in assay [2]; in [3]; on D(3) dopamine receptor; in assay [4]; in assay [5]) was more than 30 µM in each case.

Take `Cc1cccc(N2CC(CO)OC2=O)c1` (stereo not drawn) [TOLOXATONE]: the AC50 (in [6]; in assay [7]; at Cannabinoid receptor 1; in assay [8]; at Histamine H1 receptor; in [9]) was more than 30 µM in each case. For the same compound, the half-maximal activity concentration (AC50) (in assay [10]; at Glucocorticoid receptor; in assay [11]; at Histamine H3 receptor) was more than 30 µM throughout.

Take `C#C[C@]1(OC(C)=O)CC[C@H]2[C@@H]3CCC4=C/C(=N/O)CC[C@@H]4[C@H]3CC[C@@]21CC` [NORGESTIMATE]: the AC50 (in assay [6]; in [7]; on Cannabinoid receptor 1; in [8]; at Histamine H1 receptor; in [9]) was more than 30 µM each time. In addition, the AC50 in assay [10] was more than 30 µM; at Glucocorticoid receptor, 0.041 µM; in assay [11], more than 30 µM; at Histamine H3 receptor, more than 30 µM.

For `COc1cc(N)c(Cl)cc1C(=O)NC1CCN(Cc2ccccc2)CC1` [CLEBOPRIDE], the concentration at half-maximal activity (AC50) is more than 30 µM in assay [6]; more than 30 µM in assay [7]; more than 30 µM at Cannabinoid receptor 1; more than 30 µM in assay [8]; more than 30 µM at Histamine H1 receptor; 2.4 µM in assay [9]. Further, the half-maximal activity concentration (AC50) is 0.98 µM in assay [10], more than 30 µM on Glucocorticoid receptor, 14 µM in [11] and more than 30 µM on Histamine H3 receptor.

For `C[C@]12CC[C@@H]3c4ccc(O)cc4C[C@@H](CCCCCCCCC[S+]([O-])CCCC(F)(F)C(F)(F)F)[C@H]3[C@@H]1CC[C@@H]2O` (stereo partly drawn) [FULVESTRANT], the AC50 (in [6]; in assay [7]; on Cannabinoid receptor 1; in assay [8]; at Histamine H1 receptor; in assay [9]) was more than 30 µM in each case. For the same compound, the concentration at half-maximal activity (AC50) in assay [10] was more than 30 µM; on Glucocorticoid receptor it was 1.1 µM; in assay [11] it was more than 30 µM; on Histamine H3 receptor, more than 30 µM.

In the case of `C[C@]12CCC(=O)C(O)=C1CC[C@@H]1[C@@H]2CC[C@]2(C)C(=O)CC[C@@H]12` [FORMESTANE], the AC50 (in assay [6]; in assay [7]; on Cannabinoid receptor 1; in [8]; at Histamine H1 receptor; in assay [9]) was more than 30 µM each time. In addition, the concentration at half-maximal activity (AC50) (in assay [10]; on Glucocorticoid receptor; in assay [11]; on Histamine H3 receptor) was more than 30 µM in each case.

Consider `CC(=O)N[C@@H](CS)C(=O)O` [ACETYLCYSTEINE], for which the AC50 (in assay [6]; in assay [7]; at Cannabinoid receptor 1; in [8]; at Histamine H1 receptor; in [9]) was more than 30 µM each time. In addition, the AC50 (in assay [10]; on Glucocorticoid receptor; in assay [11]; on Histamine H3 receptor) was more than 30 µM in each case.

For the compound `Cc1cc(N)c2ccccc2[n+]1CCCCCCCCCC[n+]1c(C)cc(N)c2ccccc21`, the AC50 in assay [1] was 23.9 µM; in assay [2], 0.611 µM; in assay [3], 0.0497 µM; at D(3) dopamine receptor, 0.0798 µM; in assay [5] it was 10 µM.
